Series [1] addresses T1, His6-tagged HIV IN / Flag-tagged LEDGF interaction (Human immunodeficiency virus type 1 group M subtype B, UniProt P12497).
T1 construct: Hexa-His tagged full length HIV IN was expressed and purified as follows; made in house; host or cells: E. coli BL21(DE3), pET28b(+)
Put plainly: IN-LEDGF AlphaScreen (AS) assay. It is filed as binding, HIV-1. The note with it: 30 nM IN, 30 nM Flag-LEDGF, 30°C. The procedure: (§1) For the IN-LEDGF AS assay, compound dilutions and His6-tagged IN (30 nM final concentration) were initially incubated together in 10 µl of reaction buffer (25 mM Tris-Cl pH 7.5, 25 mM NaCl, 5 mM MnCl2, 5 mM MgCl2, 5 mM BME, 50 µg/ml bovine serum albumin and 0.05% (v/v) Tween-20) for 10 min at room temperature in AlphaPlate™-384 SW plates (Perkin-Elmer). Subsequently, 10 µl reaction buffer containing Flag-tagged LEDGF (30 nM final concentration), AS Ni-chelate donor beads (Perkin-Elmer; 5 µg/ml final) and AlphaLISA anti-FLAG acceptor beads (Perkin-Elmer; 5 µg/ml final) were added and protein association allowed to occur for 1 hour in the dark at 30°C before emission from the donor beads was measured using a PHERAstar FS plate-reader (BMG Labtech). Counter screen assays to ensure the compounds were not inhibiting the binding of the His or FLAG tags to the beads or quenching of the signal, were performed under the same reaction conditions except that a Flag-His6 fusion protein was used (20 nM final) instead of individual His6-tagged IN and Flag-tagged LEDGF proteins, and the initial 10 min incubation at room temperature was omitted.
On the technique in general: Bead proximity is the source of the signal in Alpha formats.

Another series deals with Flag-His6 fusion protein. Put plainly: AlphaScreen counter screen. The note with it: Flag-His6 fusion protein 20 nM. The procedure:
as §1, with “omitted. The specificity of FLAG-LEDGF for IN binding was confirmed by competing the FLAG-LEDGF with untagged LEDGF. At a 1∶1 molar ratio with FLAG-LEDGF, untagged LEDGF reduced the AS signal by 50%.” for “omitted.”

In another series the test system is HIV-1NL4-3. Put plainly: Virus infectivity assay (p24) in HuT78 cells. It is filed as cell-based. As to conditions: Human immunodeficiency virus 1, p24 production. The procedure: (§2) HuT78 cells were seeded into 96 well microtiter plates at 50,000 cells per 50 µl per well in RF-10 containing 2 µg/ml polybrene (RF-10/2). Compounds were prepared to 4× final concentration in RF-10/2, and 30 µl was added to cells. HIV-1NL4–3 (40 µl in RF-10/2 containing 1600 plaque forming units (pfu)) was added to each well or 40 µl of RF-10/2 was added to the negative controls, and when assaying compound cytotoxicity. pfu were determined by titrating virus stocks on HT4LacZ cells as described by Rocancourt et al. After 24 hours, an additional 90 µl of media or media containing 1× compound was added to each well. At 4 days post-infection, 100 µl of media was removed from each well and replaced with 100 µl of fresh media with or without compound. 48 hours later supernatants were harvested and levels of extracellular p24 determined. Supernatants were diluted 1 in 10,000 and p24 levels assayed using the Vironostika p24 assay kit.

The nature of series [2]: Cell toxicity counter screen of virus infectivity assay. It is filed as cell-based. The note with it: human, HuT78 cells. The procedure: as §2
(In general: A counterscreen serves to expose hits that act by an unwanted route or on another target.)

The subject of series [3] is HIV-1 with IN Q148H/G140S (QHGS). As to the kind of experiment: Single-round infectivity assay in 293T cells, IN QHGS mutant. It is filed as cell-based. As to conditions: Human immunodeficiency virus 1, HEK-293T, read-out: EC50 cell infectivity assay, IN QHGS. The procedure:
(§3) Single-round infectivity assays were performed with 293T cells. […]. […] Culture supernatants containing VSV-G pseudotyped virions were harvested 64 hours post-transfection, clarified by centrifugation to remove cell debris, and stored at −80°C. HIV IN mutations known to confer resistance to published IN inhibitors were prepared by site directed mutagenesis of the pol (IN) gene in a shuttle vector which contained the majority of the HIV gag and pol sequence. The mutated IN coding region was then sequence verified and exchanged for the wild-type coding sequence in the pHIV env-Luc reporter virus plasmid. Single round infection assays were conducted in 293T cells seeded in 96 well plates 16 hours prior to compound addition. Compounds were pre-incubated with cells for 4 hours at 37°C followed by the addition of sufficient virus to generate approximately 10,000 Luciferase light units in the absence of compound. Luciferase readout was measured 48 hours post-infection using the Bright-Glo™ reagent (Promega) according to the manufacturer’s instructions.

The subject of series [4] is HIV-1 with IN N155H/E92Q (NHEQ). As to the kind of experiment: Single-round infectivity assay in 293T cells, IN NHEQ mutant. It is filed as cell-based. As to conditions: Human immunodeficiency virus 1, HEK-293T, read-out: EC50 cell infectivity assay, IN NHEQ. The protocol:
as §3

Series [5] concerns the target T2, HIV IN (Human immunodeficiency virus type 1 group M subtype B, UniProt P12497). As to the kind of experiment: Strand transfer assay which did not contain LEDGF. It is filed as biochemical. The note with it: without LEDGF; data not shown.
The test system of the next series is HIV-1 with wild type IN. Put plainly: Single-round infectivity assay in 293T cells, wild type IN. It is filed as cell-based. The note with it: Human immunodeficiency virus 1, HEK-293T, read-out: EC50 cell infectivity assay, wild type IN. The procedure: as §3
In series [6] the test system is LEDGF interaction with IN. Also noted: method as in PMID 20473303. As to conditions: read-out: AS IC50; cited from earlier work.
In series [7] the test system is HIV-1. Also noted: method as in PMID 20473303. The note with it: MT-4 cells; read-out: EC50 HIV-1 infection of MT-4 cells; cited from earlier work.
In series [8] the test system is HIV-1. Also noted: method as in PMID 20473303. As to conditions: PBMC cells; read-out: EC50 HIV-1 infection of PBMC cells; cited from earlier work.
The target in series [9] is T2, HIV IN. The note with it: read-out: IC50 inhibition of strand transfer activity of HIV IN; cited from earlier work.
For series [10], the target named is T3, HIV integrase catalytic core domain core3H (C56S, F139D, F185H) (Human immunodeficiency virus type 1 group M subtype B, UniProt P12497, C1203S/F1286D/F1332H).
T3 construct: catalytic core domain (CCD) IN (residues 50 to 210) containing the mutations C56S, F139D and F185H (core3H); made in house; host or cells: E. coli, pET28b(+)
As to the kind of experiment: SPR binding to core3H. As to conditions: construct not given. The protocol:
Core3H and core4H proteins (∼3×10^−8 moles) were “minimally” biotinylated on ice for 2 hours using an equimolar concentration of EZ-Link® Sulfo-NHS-LC-LC-Biotin (Pierce). To remove unreacted biotin reagent, biotinylated proteins were passed through a Superdex 75 (10/300 GL) column equilibrated in ‘SPR capture’ buffer (50 mM HEPES pH 7.4, 150 mM NaCl, 0.05% (v/v) Tween20, 5 mM DTT, 10 mM MgCl2). The eluted proteins were stored frozen in 50 µl aliquots at −70°C. Streptavidin (Sigma) was immobilized at 25°C onto a CM7 sensor chip (GE Healthcare) docked in a Biacore T200 upgrade instrument (GE Healthcare) using a previously described procedure resulting in immobilization levels of approximately 12000 RU of protein being coupled in all flow cells. The biotinylated core IN proteins were captured onto a Streptavidin chip surface in SPR capture buffer by injecting at 5 µL/min for 5 min over a single flow cell, typically resulting in immobilization of approximately 2300 RU of target protein. A minimally-biotinylated tyrosine kinase domain of CSF-1-R was captured (∼4300 RU) in a separate flow cell to provide for an unrelated negative control. […] All SPR binding experiments were performed at 20°C in SPR binding buffer (50 mM HEPES pH 7.4, 150 mM NaCl, 0.05% (v/v) Tween20, 5 mM DTT, 10 mM MgCl2, 5% (v/v) DMSO). Small molecules stock solutions were serially diluted (2-fold) in SPR binding buffer and injected for 30 sec contact time at 60 µL/min and then allowed to dissociate for 60 sec. The entire concentration series for each compound was performed in triplicate.
Raw sensorgram data were processed, solvent corrected and double referenced using Scrubber software (BioLogic Software, Australia). For easy comparison between data sets, all experiments were normalized using a normalization formula of Giannetti et al. To determine the binding affinity (KD), responses at equilibrium for each analyte were fitted to a 1∶1 steady state affinity model available within Scrubber.
Background: SPR reads the build-up and loss of mass on a sensor chip optically.

In series [11] the target is T2, HIV IN. As to conditions: read-out: IC50 active site directed strand transfer assay; cited from earlier work.
For another series, the system named is LEDGF site of HIV IN. Also noted: method as in PMID 21767569. The note with it: read-out: IC50 AS assay for binding at the LEDGF site; cited from earlier work.
In series [12] the target is T2, HIV IN. As to conditions: cited from earlier work.
Series [13] deals with T2, HIV IN. As to conditions: read-out: IC50 strand transfer; cited from earlier work.

Like-named read-outs stand apart in the source and are kept apart here. Where only a bound is given, the exact number is not on record here.

As a reminder, the IC50 is the concentration needed to halve the response being measured. For `COc1ccc(CN2CN(Cc3ccc4c(c3C(=O)O)OCO4)Cc3ccccc3C2=O)cc1` [Compound 5], the midpoint of inhibition in [1], the IC50, lay at 600 µM.

Take `O=C(O)c1c(/C=C2\c3ccccc3CC2O)ccc2c1OCO2` (stereo not shown) [Compound 3]: the IC50 in series [1] is 270 µM.

For orientation: EC50 means the midpoint of the concentration-response curve. For orientation: CC50 means the concentration that lowers cell viability or growth by half. High values mean better tolerance by the cells, low ones harm at low concentration. `C=CCN(Cc1ccccc1C(=O)NC(c1ccc(OC)cc1)c1ccc(OC)cc1)Cc1ccc2c(c1C(=O)O)OCO2` [Compound 11] showed an IC50 with Flag-His6 fusion protein of 145 µM. For the same compound, the EC50 in the series on HIV-1NL4-3 turned out to be 29 µM; in [3], 54 µM; in series [4], 37 µM. In series [2], this compound gave a CC50 at 6 days of over 100 µM. Besides, the “activity in strand transfer assay” value on HIV IN [5] is “inactive”.

`Cc1nnc(C(=O)NC(C)(C)c2nc(C(=O)NCc3ccc(F)cc3)c(O)c(=O)n2C)o1` [raltegravir, reference compound]: the figures for the EC50 (in series [3]; in series [4]; in the series on HIV-1 with wild type IN) were over 1 µM, over 1 µM and 0.01 µM, respectively.

Turning to `CCCC(C(=O)O)c1c(C)nc2ccc(Cl)cc2c1-c1ccccc1` (stereo not shown) [LEDGIN-6], the half-maximal inhibitory concentration (IC50) in series [6] is 1.37 µM; on HIV IN [9], 19.5 µM. The EC50 in the series with HIV-1 [7] is 2.73 µM; in the series with HIV-1 [8], 3.45 µM.

For the compound `C=CCN(Cc1ccccc1C(=O)NCc1ccc(OC)cc1)Cc1ccc2c(c1C(=O)O)OCO2` [Compound 9], the IC50 in series [1] amounted to 815 µM. Further, the “binding in the SPR assay (in words)” value in [10] is recorded as “retained SPR activity”.

In turn, `CN(Cc1ccccc1C(=O)NCC1CCCCC1)Cc1ccc2c(c1C(=O)O)OCO2` [Compound 8] displayed an IC50 in [1] of 100 µM. For the same compound, the “binding in the SPR assay (in words)” value in series [10] is “loss of SPR activity”.

For `COc1ccc(CNC(=O)c2ccccc2CN(C)Cc2ccc3c(c2C(=O)O)OCO3)cc1` [Compound 7], the midpoint of inhibition in series [1], the IC50, lay at 220 µM.

In turn, `COc1ccc(CNC(=O)c2ccccc2CNCc2ccc3c(c2C(=O)O)OCO3)cc1` [Compound 6] returned an IC50 in series [1] of 270 µM. Further, the “binding in the SPR assay (in words)” value in series [10] was “binding could not be detected”.

Consider `C=CCN(Cc1ccccc1C(=O)NC(CCC)c1ccc(OC)cc1)Cc1ccc2c(c1C(=O)O)OCO2` (stereo not shown) [Compound 10], for which the IC50 in series [1] is 29 µM; in the series with Flag-His6 fusion protein, 175 µM. Also, at HIV IN [5], the “activity in strand transfer assay” value is “inactive”.

For `O=C1Cc2ccccc2/C1=C\c1ccc2c(c1C(=O)O)OCO2` [Compound 2], in series [1], 200 µM corresponded to half-maximal inhibition (IC50).

Take `O=C(O)C(O)=CC(=O)c1cn(Cc2ccc(F)cc2)c2cccc(O)c12` [CHI-1043, 4-[1-(4-Fluorobenzyl)-4-hydroxy-1H-indol-3-yl]-2-hydroxy-4-oxobut-2-enoic acid]: the IC50 on HIV IN [11] is 0.14 µM; with LEDGF site of HIV IN, 36 µM.

In series [1], `O=C(O)c1c(CN2Cc3ccccc3C(=O)N(Cc3ccccc3)C2)ccc2c1OCO2` [Compound 4] registered an IC50 of 110 µM. In series [10], the “binding in the SPR assay (in words)” value is recorded as “did not bind”. The compound further had an EC50 in the series with HIV-1NL4-3 of 275 µM. Moreover, the 50% cytotoxic concentration (CC50) at 6 days in [2] was determined as 265 µM.

Consider `O=C(NCC1CCCCC1)c1cc(S(=O)(=O)N2CCCCC2)cc(O)c1O` [N-(cyclohexylmethyl)-2,3-dihydroxy-5-(piperidin-1-ylsulfonyl) benzamide], for which the IC50 at HIV IN [12] is 8 µM; on HIV IN [13], 19 µM.

Values taken from article PMC3393750, “Small Molecule Inhibitors of the LEDGF Site of Human Immunodeficiency Virus Integrase Identified by Fragment Screening and Structure Based Design” (PLoS ONE, 2012).
